What was measured:
[1] = system: Middle Cerebral Artery Occlusion (MCAo) rats; assay: Middle cerebral artery occlusion (MCAo) rat model: infarct volume, edema volume, premature mortality; assay type: in vivo, male Sprague-Dawley rats
Experimental: For Middle Cerebral Artery Occlusion (MCAo), male Sprague-Dawley rats (270 to 330 g) were anesthetized with gaseous isoflurane. With aseptic surgical techniques, a laser-Doppler probe was placed on the right temporal-lateral portion of the skull over a region of the cortex which is supplied by the middle cerebral artery to record cerebral blood flow (CBF). CBF was recorded before and after arterial occlusion. The bifurcation of the right external common carotid 8 artery (ECA) and internal common carotid artery (ICA) was surgically exposed. A 4-0 monofilament suture treated with a silicone coating to enlarge the tip to better achieve an arterial block was placed into the ECA stump, and advanced up the ICA approximately 20 mm until a drop in CBF of approximately 75% or greater was measured by laser Doppler flowmetry (PeriFlux PF5010, Perimed). The duration of the ischemia was 120 minutes.
PAN-811 was originally dissolved to a concentration of 25.6 mmol/L in 7% (v/v) polyethylene glycol (PEG) 300, 3% ethanol (EtOH), 28.6 mmol/L citric acid and 5.7 mmol/L L-ascorbic acid solution. 25.6 mmol/L was the highest concentration of PAN-811 used for dosing. This solution was further diluted with normal saline to produce dosing solutions of 2.56 mmol/L, 5.12 mmol/L, and 10.2 mmol/L on the day of surgery. Vehicle dosing solutions were identical in components to the 5.12 mmol/L PAN-811 group (Vehicle Low), or the 10.2 mmol/L group (Vehicle High). These treatments were delivered intravenously route into MCAo rats at reperfusion time. […]
After 22 hours of treatment, the animals were sacrificed by CO2 asphyxiation, and their brains sectioned at 2 mm intervals. […] Brain areas were traced and measured using a computerized image analysis system (SimplePCI Version 4.0.0, Compix Inc) to determine infarct volume (in cubic millimeters, mm^3), whereby unstained areas were defined as ischemic lesions of infarcted tissue.
Ischemic stroke often results in brain edema (Ayata et al., 2002). Therefore, the volumes for both ipsilateral and contralateral side hemispheres of MCAo rats were measured 22 hours later, and the edema volumes (hemisphere volume of the ipsilateral side hemisphere volume of contralateral one) were calculated, and expressed as mean±SEM (FIG. 1B). […]
Brain edema can result in death of MCAo rats. Therefore, the mortalities for vehicle groups and PAN-811 treated groups, as explained in Examples 1 and 2, were counted (FIG. 1C). Mortalities of general vehicle treated groups (open bar) and collective PAN-811 treated groups (black bar) were determined and premature death rates were expressed as percentage of total animal number in each condition. […]

[2] = molecular target: T1, Recombinant human pro-MMP-9 (Homo sapiens, UniProt P14780); assay: MMP Assay Kit (5-FAM/QXL520 FRET peptide) for MMP-9 bioactivity; assay type: biochemical; conditions: final concentration of PAN-811 1 mM, calcium 0.4 mM, 30 min room temperature
T1 construct: purchased AnaSpec 72009
T1 sequence (P14780 107-707 limits assumed): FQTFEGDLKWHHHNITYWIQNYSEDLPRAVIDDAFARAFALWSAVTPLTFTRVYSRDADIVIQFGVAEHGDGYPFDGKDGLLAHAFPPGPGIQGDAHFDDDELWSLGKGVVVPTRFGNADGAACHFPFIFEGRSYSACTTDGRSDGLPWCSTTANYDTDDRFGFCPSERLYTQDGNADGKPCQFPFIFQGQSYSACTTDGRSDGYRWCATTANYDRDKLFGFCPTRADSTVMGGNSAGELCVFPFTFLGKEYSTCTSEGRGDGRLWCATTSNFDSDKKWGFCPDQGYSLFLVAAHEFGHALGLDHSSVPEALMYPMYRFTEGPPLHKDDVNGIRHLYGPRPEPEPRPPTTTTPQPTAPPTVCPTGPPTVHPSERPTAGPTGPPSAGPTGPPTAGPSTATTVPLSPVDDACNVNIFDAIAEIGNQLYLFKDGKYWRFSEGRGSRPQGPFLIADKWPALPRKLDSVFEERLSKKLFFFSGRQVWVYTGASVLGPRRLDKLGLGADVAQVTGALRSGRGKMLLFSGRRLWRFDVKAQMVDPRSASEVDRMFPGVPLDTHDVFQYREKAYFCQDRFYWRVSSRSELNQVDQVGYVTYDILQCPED
Source text: The principle behind this analysis is as follows. A 5-FAM/QXL™520 fluorescence resonance energy transfer (FRET) peptide is used as a substrate for MMP. The fluorescence of 5-FAM is quenched by QXL™520 in intact FRET peptide. However, upon cleavage of FRET into two separate fragments by MMP, in the presence of Ca^2+, the fluorescence of 5-FAM is recovered, and can be monitored at excitation/emission wavelengths of […]/520 nm with a fluorometer. Thus, an inhibitor of MMP-9 could suppress the cleavage of FRET by MMP-9 and decrease the fluorescence intensity of 5-FAM. To test the effect of PAN-811 on the bioactivity of MMP-9, black 96-well plates (Cat #3603, Costar®), Corning Inc.) were pre-warmed at 37° C. 4-aminophenylmercuric acetate (APMA) was diluted 20-fold with assay buffer (both in MMP assay kit) to a final concentration of […]. Recombinant human pro-MMP-9 (10 μg/ml, Cat #72009, AnaSpec, San Jose) was pre-incubated with 1 mM APMA at 37° C. for 2 hours to activate this enzyme. […] Treated wells were incubated at room temperature for 30 min and the fluorescence intensity of 5-FAM was determined for each sample by measurement at excitation/emission wavelengths of 485 nm/520 nm with a fluorometer and reported in RFU (FIGS. 6A and 6B). […]

## NC(=S)N/N=C/c1ncccc1N [PAN-811, 3-aminopyridine-2-carboxaldehyde thiosemicarbazone]
[1]; 2 mg/kg i.v., compared to the high vehicle group, 22 hours
  reduction in edema volume: 70%
[1]; 5 mg/kg i.v., compared with High vehicle group, 22 hours (data not shown)
  reduction in edema volume: 31%
[1]; all PAN-811 treated groups (9 of 57), vehicle groups 28%
  premature mortality rate: 15.8%
[1]; all PAN-811 treated groups versus the 2 vehicle-treated groups
  reduction of premature mortality: 44%
[2]
  suppression of pro-MMP-9-catalyzed increase in fluorescence intensity: 64%

— US20090286799A1, “METHODS FOR THE TREATMENT OF BRAIN EDEMA” (priority 2008, published 2009)
